According to PMC5814047, “Peptidic inhibitors of insulin-degrading enzyme with potential for dermatological applications discovered via phage display” (PLoS ONE, 2018):
“And” between values parts separate entries of the source, which are not always exact repeats. Equal values may be shown once. “Also recorded” adds a separate entry of the source. Bridge positions count the residues as written; N and C are the ends. Peptide text beside a SMILES is read from it.

Experiments:
Type in all cases: cell-based
HaCaT cells = experiment: In vitro scratch wound migration assay; details: for migration of keratinocytes, single replicates (average of two observers) / migration of keratinocytes, Mean: 48 hr after scratching; for migration of keratinocytes, Mean: N 6
Description: (§1) Insulin promotes wound healing and overall skin health by affecting a number of processes, including cell proliferation, cell migration, and the production and secretion of ECM components, particularly type I collagen. We therefore assessed the ability of P12-3A to influence these processes in cultured skin fibroblasts and keratinocytes. To that end, primary mouse skin fibroblasts were grown for 4 d in multiple concentrations of insulin in the presence or absence of P12-3A, and insulin concentration over time was monitored by ELISA. […] Finally, the effects of P12-3A on collagen production in were assessed at both the transcriptional and the posttranslational level in confluent monolayers of fibroblasts. After 4 d of treatment with P12-3A (100 μM), mRNA levels for the major form of collagen, alpha-1 type I collagen (COL1A1), were quantified by RT-PCR and found to be increased to ~2.6 times the levels of untreated cells (Fig 4C). To assess overall levels of collagen production and secretion, we quantified levels of hydroxyproline, a modified amino acid present almost exclusively in collagen proteins. […] Western blotting also confirmed that mature, cell-associated collagen levels were increased in the presence of P12-3A (Fig 4E).
(§2) Fig 4 Effects of P12-3A on cultured skin cells. A, Insulin concentrations as a function of time in logarithmically growing primary murine skin fibroblasts in the absence or presence of P12-3A (100 μM). […] Data are mean ± SEM of 4 independent replications. *P<0.05, **P<0.01. B, Proliferation of cells in the absence or presence of P12-3A (100 μM). Data are mean ± SEM of 6 independent replications. […] C,D,E, P12-3A (100 μM) potentiates insulin-induced collagen production in skin fibroblasts. Collagen production was assessed by COL1A1 mRNA levels (C), levels of hydroxyproline secreted into the medium (D), and cell-associated mature alpha-1 type I collagen levels detected by Western blotting (E). Data are mean ± SD of 4 independent replications. *P<0.05, **P<0.01. […] Migration of HaCaT cells 48 h after induction of a scratch wound in the presence of the indicated quantities of insulin and/or P12-3A (100 μM). Data are mean ± SEM of 6 independent replications. *P<0.05, **P<0.01.
Cell migration in HaCaT cells after induction of scratch wounds was quantified essentially as described. Briefly, HaCaT cells maintained in optimized DMEM (AddexBio Technologies, San Diego, CA, USA) supplemented with 10% FBS, penicillin and streptomycin, were grown to confluency in 24-well tissue culture plates, and scratch wounds were induced with a 200-μL pipette tip. After growth for 48 h in the absence or presence of insulin (10 nM or 100 nM) and/or P12-3A (100 μM), cell migration distance was quantified by two independent, blinded observers using a Nikon TMS inverted light microscope (Nikon Corp., Melville, NY, USA) fitted with a ruler reticle.

[1] = tested on: primary murine skin fibroblasts; experiment: Insulin degradation in primary murine skin fibroblasts (ELISA of conditioned medium); details: for Percent insulin remaining, Mean / Percent insulin remaining: P12-3A 100 uM, 100nM insulin added; for Percent insulin remaining, Mean: N 4; for Percent insulin remaining: conditioned medium, individual replicates
Description: as §1, §2
IDE activity was quantified by monitoring the degradation of Mca-[…](Dnp) (FRET1, 5 μM), fluoresceinated and biotinylated amyloid ß-protein (FAßB; 500 nM) or recombinant human insulin (50 nM) in PBS supplemented with 0.05% BSA. FRET1 degradation was measured by changes in fluorescence (λex = 340 nm, λem = 420 nm); FAßB degradation was monitored by fluorescence polarization (λex = 488 nm, λem = 525 nm), as described; and insulin degradation was quantified by ELISA. In vitro activity assays incorporated recombinant human IDE (1 nM) purified from bacteria. For quantitation of insulin degradation in primary murine skin fibroblasts, cells (1 x 10^5/well) were plated in 96-well plates and maintained in DMEM supplemented with 10% fetal bovine serum (FBS), 2mM glutamine, penicillin and streptomycin. After addition of insulin (10 nM or 100 nM), samples of conditioned medium were removed daily and quickly frozen, then insulin levels were quantified in parallel by ELISA according to manufacturer’s recommendations (Crystal Chem, Downers Grove, IL, USA). Assessment of the activity of P12-3A against a variety of matrix-metalloproteases was conducted using the Matrix Metalloproteinase (MMP) Inhibitor Profiling Kit, Fluorometric RED (Enzo Life Sciences, Inc., Farmingdale, NY, USA) according to manufacturer’s recommendations using the broad-spectrum MMP inhibitor, NNGH, as a positive control.

[2] = tested on: primary murine skin fibroblasts; experiment: Cell proliferation (CellTiter 96 AQueous); details: for Cell count, Mean / Cell count: P12-3A 100 uM, 100nM insulin added, cells per well; for Cell count, Mean: N 6; for Cell count: individual replicates
Description: as §1, §2
Primary murine skin fibroblasts cells (1 x 10^5/well) were plated in 96-well plates, using separate plates for each timepoint and endpoint. Cell proliferation was quantified using the CellTiter 96® AQueous Non-Radioactive Cell Proliferation Assay (Promega Corp., Madison, WI, USA) according to manufacturer’s recommendations.

SMILES: CC(C)C[C@H](NC(=O)[C@H](CO)NC(=O)[C@@H](N)CCC(N)=O)C(=O)N1CCC[C@H]1C(=O)N[C@@H](Cc1c[nH]c2ccccc12)C(=O)N[C@H]1CSSC[C@@H](C(=O)N[C@H](C(=O)N[C@H](C(N)=O)[C@@H](C)O)C(C)C)NC(=O)[C@H](Cc2c[nH]cn2)NC(=O)[C@@H]2CCCN2C(=O)[C@H](Cc2ccc(O)cc2)NC1=O [P12-3A] (H-QSLPWCYPHCVT-NH2; disulfide 6-10 (inferred))
- migration of keratinocytes, single replicates (average of two observers) (HaCaT cells; 10 nM ins): 10.5 mm and 10.6 mm and 10.1 mm and 8.4 mm and 4.9 mm and 12.6 mm
- migration of keratinocytes, Mean (HaCaT cells; 10 nM ins): 9.5 mm
- migration of keratinocytes, single replicates (average of two observers) (HaCaT cells; 100 nM ins): 10.1 mm and 11.5 mm and 16.4 mm and 11.4 mm and 14.4 mm and 18.1 mm
- migration of keratinocytes, Mean (HaCaT cells; 100 nM ins): 13.6 mm
- migration of keratinocytes (HaCaT cells; 100 μM P12-3A, different concentrations of insulin, 48 h): statistically significant increases
- migration of keratinocytes, single replicates (average of two observers) (HaCaT cells; no ins): 5.0 mm and 5.9 mm and 3.4 mm and 8.3 mm and 3.2 mm and 4.0 mm
- migration of keratinocytes, Mean (HaCaT cells; no ins): 4.9 mm
- insulin levels over time in cells ([1]; 100 μM P12-3A, 10 nM insulin, up to day 4, logarithmically growing cells): remain constant
- Percent insulin remaining, Mean ([1]; t 0 d): 100.0%
- Percent insulin remaining ([1]; t 0 d): 85.1403% and 114.724% and 102.178% and 97.9576%
- Percent insulin remaining, Mean ([1]; t 1 d): 102.0%
- Percent insulin remaining ([1]; t 1 d): 95.514% and 88.3018% and 126.115% and 98.0694%
- Percent insulin remaining, Mean ([1]; t 2 d): 97.0%
- Percent insulin remaining ([1]; t 2 d): 100.082% and 83.3067% and 102.861% and 101.75%
- Percent insulin remaining, Mean ([1]; t 3 d): 91.0%
- Percent insulin remaining ([1]; t 3 d): 84.576% and 69.9969% and 96.4916% and 112.935%
- Percent insulin remaining, Mean ([1]; t 4 d): 96.0%
- Percent insulin remaining ([1]; t 4 d): 100.148% and 97.4317% and 103.413% and 83.0078%
- cell proliferation relative to control cells ([2]; 100 μM P12-3A, 10 nM insulin): modestly increased; also recorded: No significant differences were observed
- Cell count, Mean ([2]; t 0 d): 0.15 *100,000
- Cell count ([2]; t 0 d): 0.1682 *100,000 and 0.1108 *100,000 and 0.1565 *100,000 and 0.1271 *100,000 and 0.1836 *100,000 and 0.1526 *100,000
- Cell count, Mean ([2]; t 1 d): 0.28 *100,000
- Cell count ([2]; t 1 d): 0.0908 *100,000 and 0.3439 *100,000 and 0.3368 *100,000 and 0.2676 *100,000 and 0.3256 *100,000 and 0.3423 *100,000
- Cell count, Mean ([2]; t 2 d): 0.63 *100,000
- Cell count ([2]; t 2 d): 0.4380 *100,000 and 0.6462 *100,000 and 0.8125 *100,000 and 0.5756 *100,000 and 0.7135 *100,000 and 0.6125 *100,000
- Cell count, Mean ([2]; t 3 d): 1.33 *100,000
- Cell count ([2]; t 3 d): 1.4714 *100,000 and 1.6270 *100,000 and 1.4135 *100,000 and 1.4988 *100,000 and 1.1573 *100,000 and 0.8293 *100,000
- Cell count, Mean ([2]; t 4 d): 2.46 *100,000
- Cell count ([2]; t 4 d): 3.2440 *100,000 and 1.8308 *100,000 and 1.5133 *100,000 and 1.9615 *100,000 and 2.9117 *100,000 and 3.3184 *100,000
